In US20130101628A1 (NORTHWESTERN UNIVERSITY, priority 2011, published 2013):
* marks the point of attachment. Palmitoyl = CCCCCCCCCCCCCCCC(=O)*

What was measured:
[1] = target: T1, VEGF receptor 2 (VEGFR2 or KDR) (Homo sapiens, UniProt P35968); test: Sandwich ELISA of phosphorylated VEGFR2 in lysates of stimulated HUVEC; format: cell-based
T1 construct: host or cells: HUVEC
Protocol: (§1) Human umbilical vein endothelial cells (HUVECs) and complete endothelial cell growth media (EGM) were purchased (Genlantis, San Diego, Calif.), passaged two times following receipt, and cryo-preserved in media with 5% DMSO. Cells were thawed as needed and grown to confluence in a […] flasks (VWR Falcon) prior to plating for experiments.
(§2) Phosphorylation of both VEGFRI and VEGFR2 was assayed using commercially available assay kit (R&D Systems, Minneapolis, Minn.) following the recommended protocol. First, confluent HUVECs plated in 24 well plates were starved for 5 hours in serum-free defined media (SFDM, Genlantis) specifically designed to maintain cells in a growth factor-free setting for growth factor signaling and metabolic assays. Following starvation, the various treatments were dissolved in SFDM to a concentration of 1 μM. […] Cells were exposed to treatment for 2 minutes. To evaluate the time-course of phosphorylation the same protocol was followed and cells were exposed to VEGF-PA for 0, 1, 3, 5, 10, 15, 20, 25, 30, 40, 50, and 60 minutes.

ischemic hind-limb = test: Murine hind-limb ischemia (HLI) model; format: in vivo, mice; conditions: for limb motor function score / tissue (limb) salvage score: single i.m. injection 25 μl of 2 mM; for limb motor function score: grade 1-5; for tissue (limb) salvage score: grade 1-6
Protocol: For the HLI procedure, eight week old male FVB wild-type mice (Charles River) were anesthetized by intraperitoneal injection of avertin (125 mg/kg). By means of a dissecting microscope, the femoral nerve was carefully separated from the vessel bundle. The right femoral artery was ligated and excised, including all superficial and deep branches. Critical limb ischemia was immediately verified by laser Doppler imaging (LDPI, MoorLDI-SIM, Moor Instruments, Ltd) to ensure the ratio (ischemic/non-ischemic limb) was ≦0.20. At postoperative day 3, outliers with low ischemia were triaged based on LDPI (ratio ischemic/nonischemic 0.30) as were outliers with extreme ischemia (necrotic demarcation of entire limb), determined by macroscopic evaluation. […] For follow-up, animals underwent reevaluations with LDPI at postoperative day 7, 14, and 28 before animals were sacrificed (CO, asphyxia) for tissue harvest at day 28. At each time-point, tissue perfusion was measured via LDPI, measuring blood flow in both the ischemic and non-ischemic limb and reporting results as the ratio of these two measurements. All LDPI measurements were taken on a 37° C. heating pad to control body temperature. In addition, motor function and tissue damage was semi-quantitatively assessed on post-operative day 7, 14, 21 and 28 by established scoring systems. Tissue damage in the ischemic limb (limb salvage score) was graded as full recovery (grade 6), minor necrosis or nail loss (grade 5), partial toe amputation (grade 4), total toe amputation (grade 3), partial/total foot amputation (grade 2) or partial/total limb amputation (grade 1) (modified from). Limb motor function was graded as unrestricted (grade 5), no active use of toe(s) or spreading (grade 4), restricted foot use (grade 3), no use of foot (grade 2) or no use of limb at all (grade 1) (modified from). Finally, walking capacity was measured via a Rota Rod apparatus. […] The mean of two assessments was used as for failure time for each animal. At day 28, muscle tissue from the ischemic limb was harvested, fixed in methanol, paraffin-embedded, and cross-sectioned (6-μm) for histological immunostaining. Briefly, sections were blocked with 10% donkey serum (30 min, RT). Primary antibodies were diluted in PBS containing BSA, and applied to tissue slices for 2 hrs at 37° C. Sections were stained for CD31, an endothelial-specific marker, using rat anti-CD31 antibodies (BD Pharmingen Inc) and smooth-muscle α-actin (αSMA), a vascular smooth muscle marker, using rabbit-anti-αSMA (Sigma-Aldrich Co.). For immunofluorescent detection, primary antibodies were resolved with Alexa-Fluor-conjugated secondary antibodies (Invitrogen Corporation, Carlsbad, Calif., USA dilution) and nuclei were counterstained with DAPI (Research Organics). Slides were imaged using fluorescent microscopy (Zeiss), and CD31+capillary forms and CD31+/sMA+]mature microvessels/arterioles were quantified in 3 separate high-power fields (20×) from 3 independent sections in each animal (9 images/animal). All error bars indicate the standard error of the mean. Differences between groups were determined using a one-way analysis of variance (ANOVA) with a Bonferroni multiple comparisons post-hoc test using GraphPad InStat v3.0b. […] VEGF-PA or control treatments were administered by an intramuscular injection three days following the induction of critical ischemia by ligation and excision of the right femoral artery and all superficial and deep branches, as described above. Animals were assessed serially throughout the study for motor function and limb salvage and Laser Doppler perfusion imaging (LDPI) was used to assess tissue perfusion. At the end of the study, exercise endurance was recorded on a Rota Rod treadmill and tissue was harvested for immunohistological staining of capillaries to observe effects on the microcirculation.

[2] = target: T2, VEGF receptor 1 (VEGFR1 or Flt-1) (Homo sapiens, UniProt P17948); test: Sandwich ELISA of phosphorylated VEGFR1 in lysates of stimulated HUVEC; format: cell-based; conditions: HUVEC time-course 0-60 minutes; falls below untreated baseline
T2 construct: host or cells: HUVEC
Protocol: as §1, §2

[3] = test system: chicken chorioallantoic membrane (CAM); test: Shell-less chicken chorioallantoic membrane (CAM) angiogenesis assay; format: in vivo; conditions: 2 mM in PBS dried on coverslip, three days following treatment; saline 132%
Text: An established assay reflecting in vivo angiogenesis, the chicken chorioallantoic membrane (CAM) assay, was used to evaluate the angiogenic potential of the VEGF-PA of the present examples. This assay utilizes the extra-embryonic allantois, a tissue derived from the mesoderm that develops into a densely vascularized membrane. A common deviation from the traditional assay is to remove the shell and conduct the assay on a shell-less embryo, termed the shell-less CAM assay, as we have performed here. Fertilized white leghorn chicken eggs (Phil's Fresh Eggs, Forreston, Ill.) were received and cultured in a temperature controlled, humidified egg incubator. On embryonic day 3, eggs were cracked within a sterile tissue culture hood into round 100 mm petri dishes. Fertilized embryos were then transferred to a water-jacketed CO2 incubator, set to 37.5° C., 1% CO2 and 100% relative humidity. On embryonic day 10, the material treatment was dissolved at 2 mM in PBS, evaporated onto the surface of a 5 mm round glass cover slip, and placed facing down on top of the CAM (n=16/group). Digital images were captured through the eyepiece of a Nikon stereomicroscope and vessel density was quantified by the number of intersections of vessel structures with the edge of the cover slip and expressed relative to the initial time-point. Images were captured daily, beginning at embryonic day 10 and culminating on embryonic day 13, the standard range over which the CAM assay is performed. Additionally, images were assessed qualitatively for morphological differences in the CAM vasculature including spoking, branching and leakage.

T1 sequence (P35968 20-1356): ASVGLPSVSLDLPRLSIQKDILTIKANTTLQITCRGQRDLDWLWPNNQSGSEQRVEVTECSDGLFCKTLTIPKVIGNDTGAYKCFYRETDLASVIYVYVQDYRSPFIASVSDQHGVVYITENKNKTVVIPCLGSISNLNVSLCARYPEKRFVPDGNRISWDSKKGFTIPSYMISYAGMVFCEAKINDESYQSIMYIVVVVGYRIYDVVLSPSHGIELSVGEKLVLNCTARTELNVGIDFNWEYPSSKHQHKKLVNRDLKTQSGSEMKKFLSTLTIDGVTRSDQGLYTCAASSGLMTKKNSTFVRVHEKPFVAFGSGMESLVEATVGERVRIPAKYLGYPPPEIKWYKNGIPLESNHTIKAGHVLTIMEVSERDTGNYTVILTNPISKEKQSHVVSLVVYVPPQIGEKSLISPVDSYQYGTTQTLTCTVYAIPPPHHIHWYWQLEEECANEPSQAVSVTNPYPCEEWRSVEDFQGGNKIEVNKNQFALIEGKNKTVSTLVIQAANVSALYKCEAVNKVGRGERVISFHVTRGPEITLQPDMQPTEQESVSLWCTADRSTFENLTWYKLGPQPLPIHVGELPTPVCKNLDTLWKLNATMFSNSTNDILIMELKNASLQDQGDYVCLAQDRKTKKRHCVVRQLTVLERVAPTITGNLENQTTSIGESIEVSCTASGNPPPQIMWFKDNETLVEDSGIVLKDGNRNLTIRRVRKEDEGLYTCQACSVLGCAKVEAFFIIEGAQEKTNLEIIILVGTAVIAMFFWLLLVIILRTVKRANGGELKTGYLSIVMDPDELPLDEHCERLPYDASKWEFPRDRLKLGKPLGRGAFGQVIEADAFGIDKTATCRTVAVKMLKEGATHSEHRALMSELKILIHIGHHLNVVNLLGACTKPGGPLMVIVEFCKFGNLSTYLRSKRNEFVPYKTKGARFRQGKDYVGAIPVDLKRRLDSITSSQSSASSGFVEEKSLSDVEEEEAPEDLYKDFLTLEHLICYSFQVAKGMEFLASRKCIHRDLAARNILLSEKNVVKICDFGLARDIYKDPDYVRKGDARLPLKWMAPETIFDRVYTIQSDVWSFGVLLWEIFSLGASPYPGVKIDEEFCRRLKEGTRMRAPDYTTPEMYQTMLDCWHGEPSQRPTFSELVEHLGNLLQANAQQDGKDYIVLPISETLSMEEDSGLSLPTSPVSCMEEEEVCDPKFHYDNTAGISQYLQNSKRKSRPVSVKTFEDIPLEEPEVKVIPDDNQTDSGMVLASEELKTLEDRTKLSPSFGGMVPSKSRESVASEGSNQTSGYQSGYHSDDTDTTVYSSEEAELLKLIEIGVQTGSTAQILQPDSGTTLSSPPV
T2 sequence (P17948 27-1338): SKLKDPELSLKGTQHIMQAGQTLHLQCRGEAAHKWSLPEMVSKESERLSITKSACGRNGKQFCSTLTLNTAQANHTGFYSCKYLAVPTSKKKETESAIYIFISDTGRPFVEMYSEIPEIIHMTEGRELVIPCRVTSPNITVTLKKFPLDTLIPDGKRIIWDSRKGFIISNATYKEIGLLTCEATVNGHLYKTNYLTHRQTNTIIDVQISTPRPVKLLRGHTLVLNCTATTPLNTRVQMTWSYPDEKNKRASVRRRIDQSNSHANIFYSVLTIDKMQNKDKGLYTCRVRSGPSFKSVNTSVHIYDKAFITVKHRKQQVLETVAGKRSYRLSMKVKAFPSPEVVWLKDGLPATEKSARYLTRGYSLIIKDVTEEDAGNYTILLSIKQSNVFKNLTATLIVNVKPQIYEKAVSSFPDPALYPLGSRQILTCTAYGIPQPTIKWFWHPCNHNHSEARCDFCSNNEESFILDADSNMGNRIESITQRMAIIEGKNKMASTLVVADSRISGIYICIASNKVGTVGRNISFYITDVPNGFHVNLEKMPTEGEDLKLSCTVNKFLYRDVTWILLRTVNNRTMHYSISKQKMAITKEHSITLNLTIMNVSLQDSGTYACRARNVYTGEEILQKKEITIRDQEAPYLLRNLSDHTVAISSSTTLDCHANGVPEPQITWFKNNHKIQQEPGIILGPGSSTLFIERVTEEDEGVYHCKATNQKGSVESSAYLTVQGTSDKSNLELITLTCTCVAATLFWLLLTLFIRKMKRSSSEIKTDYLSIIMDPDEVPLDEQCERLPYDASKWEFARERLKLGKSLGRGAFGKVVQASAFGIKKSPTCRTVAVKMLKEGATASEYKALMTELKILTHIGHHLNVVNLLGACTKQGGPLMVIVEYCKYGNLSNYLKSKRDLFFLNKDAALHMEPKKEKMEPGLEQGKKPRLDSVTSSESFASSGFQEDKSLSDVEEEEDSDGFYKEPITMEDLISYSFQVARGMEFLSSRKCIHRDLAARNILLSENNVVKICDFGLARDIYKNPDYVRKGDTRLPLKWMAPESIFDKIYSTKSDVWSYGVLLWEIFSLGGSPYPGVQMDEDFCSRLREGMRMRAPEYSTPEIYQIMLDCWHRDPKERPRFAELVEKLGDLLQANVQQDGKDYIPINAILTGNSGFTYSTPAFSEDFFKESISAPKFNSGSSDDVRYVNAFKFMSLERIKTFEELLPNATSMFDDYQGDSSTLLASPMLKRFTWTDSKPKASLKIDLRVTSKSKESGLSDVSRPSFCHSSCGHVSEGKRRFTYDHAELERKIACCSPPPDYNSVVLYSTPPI

CH3(CH2)14C(O)— VVAAKKKGKLTWQELYQLKYKGI-NH2 (Palmitoyl-VVAAKKKGKLTWQELYQLKYKGI-NH2; SMILES CCCCCCCCCCCCCCCC(=O)N[C@H](C(=O)N[C@H](C(=O)N[C@@H](C)C(=O)N[C@@H](C)C(=O)N[C@@H](CCCCN)C(=O)N[C@@H](CCCCN)C(=O)N[C@@H](CCCCN)C(=O)NCC(=O)N[C@@H](CCCCN)C(=O)N[C@@H](CC(C)C)C(=O)N[C@H](C(=O)N[C@@H](Cc1c[nH]c2ccccc12)C(=O)N[C@@H](CCC(N)=O)C(=O)N[C@@H](CCC(=O)O)C(=O)N[C@@H](CC(C)C)C(=O)N[C@@H](Cc1ccc(O)cc1)C(=O)N[C@@H](CCC(N)=O)C(=O)N[C@@H](CC(C)C)C(=O)N[C@@H](CCCCN)C(=O)N[C@@H](Cc1ccc(O)cc1)C(=O)N[C@@H](CCCCN)C(=O)NCC(=O)N[C@H](C(N)=O)[C@@H](C)CC)[C@@H](C)O)C(C)C)C(C)C) [VEGF-PA]
time of stimulation at which phosphorylated VEGFR2 begins to decrease after initial rise ([1]; HUVEC time-course 0-60 minutes, falls below untreated baseline): 10 min
VEGFR2 phosphorylation level relative to untreated control ([1]; HUVEC, 1 μM, 2 minutes exposure, untreated control 1.000±0.109): 1.581±0.050
LDPI perfusion ratio (ischemic/non-ischemic limb) (ischemic hind-limb; 14 days after induction of ischemia): 0.76±0.05
limb motor function score (ischemic hind-limb; day 21): 3.89±0.12
tissue (limb) salvage score (ischemic hind-limb; day 21): 4.21±0.21
LDPI perfusion ratio (ischemic/non-ischemic limb) (ischemic hind-limb; day 28): 0.72±0.05
Rota Rod walking time prior to failure (ischemic hind-limb; day 28, saline 90.4 seconds): 150.5 ± 9.5 s
limb motor function score (ischemic hind-limb; day 28): 4.21±0.16
tissue (limb) salvage score (ischemic hind-limb; day 28): 4.21±0.21
effect on the number of CD31+/smooth muscle actin+ arterioles (ischemic hind-limb; tissue harvested at day 28): no effect
number of CD31+ capillaries in ischemic limb muscle (ischemic hind-limb; tissue harvested at day 28, saline 893/mm2): 1582±76 /mm2
time of stimulation at which phosphorylated VEGFR1 begins to decrease after initial rise [2]: 10 min
blood vessels relative to the initial value [3]: 229%±19%
